According to patent US20230047825A1, “ANTIMICROBIAL PEPTIDES” (priority 2019, published 2023):
Values joined by “and” are separate entries in the source; they are usually repeats but may differ in a detail not shown here. Identical values can stand only once. Marks after values point to notes of the source that are not given here. Where a SMILES comes first, the peptide text is derived from it.

Assay: Maximum Tolerated Dose (MTD) assessment, IV TID q8h: mortality, body weight, clinical observations
Format: in vivo, mouse
Set-up: key to Irritability / Hyperactivity / Inc. Startle / Inc. Touch / Dec. Startle Response / Dec. Touch Response / Inc. Exploration / Dec. Exploration / Pinna / Placing / Tremor / Dec. Spont. Activity / Straub Tail / Reactivity / Righting / Ataxia / Convulsion C.T.C-T / Low Limb Post / Abdominal Tone / Limb Tone / Grip Strength / Salivation F.V. / Lacrimation / Diarrhea / Body Temperature / Piloerection / Inc. Palpebral Size / Dec. Palpebral Size / Others / Death: “−” no effects; “±”: Slight to moderate effects; +: Severe effects; “C.”: Cyanosis; “D.”: Depth; E: Edema
Conditions: for Body Weight, individual animals No. 1-4 / Mortality (total number of deaths/total number of animals): IV; for Body Temperature / Death / Dec. Palpebral Size / Diarrhea / Inc. Palpebral Size / Lacrimation / Others / Piloerection / Respiration / Salivation F.V. / Skin Color: AUTONOMIC; for Body Temperature / Death / Dec. Palpebral Size / Diarrhea / Inc. Palpebral Size / Lacrimation / Others / Piloerection / Respiration / Salivation F.V. / Skin Color / Dec. Exploration / Dec. Startle Response / Dec. Touch Response / Hyperactivity / Inc. Exploration / Inc. Startle / Inc. Touch / Irritability / Pinna / Placing / Ataxia / Convulsion C.T.C-T / Dec. Spont. Activity / Grip Strength / Limb Tone / Low Limb Post / Reactivity / Righting / Straub Tail / Tremor / Abdominal Tone: 5 minutes after 1st dosing, ICR mice, animals No. 1-4; for Dec. Exploration / Dec. Startle Response / Dec. Touch Response / Hyperactivity / Inc. Exploration / Inc. Startle / Inc. Touch / Irritability / Pinna / Placing: BEHAVIORAL; for Ataxia / Convulsion C.T.C-T / Dec. Spont. Activity / Grip Strength / Limb Tone / Low Limb Post / Reactivity / Righting / Straub Tail / Tremor / Abdominal Tone: NEUROLOGIC
Method: Tolerability analysis was conducted to determine the upper limit of D-PLEUROCIDIN-KR dosage. Test article solutions were intravenously (IV) administered to immunocompetent ICR mice with the dose schedule and concentrations indicated in the study design in the table below.
The animals were not infected. Doses were IV administered thrice (TID) with 8 h intervals (q8h) between doses. Animals were humanely euthanized after 3 days of the last treatment or at humane endpoints.
The MTD assessment was performed with immunocompetent female ICR mice, weighing 22 f 2 g. All animals were specific pathogen free.
Test articles were administered to animals by IV injections following the dose schedule, volumes, and concentrations indicated the Table above for MTD study. […] Animals were humanely euthanized if severe acute toxicity was observed during the experimental period.
The adverse effects were monitored at 5 minutes via cage-side observation after each subsequent IV administration on Day 1. Animals were observed again for mortality at 72 h after the last treatment. Body weights were recorded before each treatment and at 72 h after the last treatment. If overt toxicity was observed after the 1st or 2nd dose of a group, the 2nd or 3rd dose of that group was not administered.
Any adverse events observed were summarized. List of scores from observation assessments were also recorded.

[1] = 5 mg/kg, TID q8h, 24 h of 3rd dosing
[2] = 5 mg/kg, TID q8h, 48 h of 3rd dosing
[3] = 5 mg/kg, TID q8h, 72 h of 3rd dosing
[4] = 10 mg/kg, 24 h of 3rd dosing (2nd and 3rd doses not administered)
[5] = 10 mg/kg, 48 h of 3rd dosing (2nd and 3rd doses not administered)
[6] = 10 mg/kg, 72 h of 3rd dosing (2nd and 3rd doses not administered)

CC(C)C[C@@H](NC(=O)[C@@H](Cc1ccc(O)cc1)NC(=O)[C@@H](Cc1c[nH]cn1)NC(=O)[C@H](NC(=O)[C@@H](CC(C)C)NC(=O)[C@@H](C)NC(=O)[C@@H](C)NC(=O)[C@@H](CCCNC(=N)N)NC(=O)CNC(=O)[C@H](NC(=O)[C@@H](Cc1c[nH]cn1)NC(=O)[C@@H](CCCNC(=N)N)NC(=O)CNC(=O)[C@H](NC(=O)[C@@H](Cc1c[nH]cn1)NC(=O)[C@@H](C)NC(=O)[C@@H](C)NC(=O)[C@@H](CCCNC(=N)N)NC(=O)[C@@H](CCCNC(=N)N)NC(=O)[C@@H](Cc1ccccc1)NC(=O)[C@@H](Cc1ccccc1)NC(=O)[C@@H](CO)NC(=O)CNC(=O)[C@@H](Cc1c[nH]c2ccccc12)NC(=O)CN)C(C)C)C(C)C)[C@H](C)O)C(N)=O [D-pleurocidin-KR] (HELM PEPTIDE1{G.[dW].G.[dS].[dF].[dF].[dR].[dR].[dA].[dA].[dH].[dV].G.[dR].[dH].[dV].G.[dR].[dA].[dA].[dL].[dT].[dH].[dY].[dL].[am]}$$$$V2.0; N-terminus assumed)
adverse effects after the first dose administration (5 mg/kg): severe cyanosis, labored respiration and edema
Body Weight, individual animals No. 1-4 (5 mg/kg, TID q8h, 1st dosing (recorded before treatment)): 25 g (3×) and 23 g
Body Weight, individual animals No. 1-4 (5 mg/kg, TID q8h, 2nd dosing): 25 g (3×) and 23 g
Body Weight, individual animals No. 1-4 (5 mg/kg, TID q8h, 3rd dosing): 25 g and 24 g (2×) and 23 g
Body Weight, individual animals No. 1-4 [1]: 26 g and 25 g (2×) and 23 g
Mortality (total number of deaths/total number of animals) [1]: 0/4
Body Weight, individual animals No. 1-4 [2]: 25 g (3×) and 23 g
Mortality (total number of deaths/total number of animals) [2]: 0/4
Body Weight, individual animals No. 1-4 [3]: 26 g (3×) and 24 g
Mortality (total number of deaths/total number of animals) [3]: 0/4
Mortality (total number of deaths/total number of animals) (5 mg/kg, TID, q8h, 5 min of 1st dosing): 0/4
Mortality (total number of deaths/total number of animals) (5 mg/kg, TID, q8h, 5 min of 2nd dosing): 0/4
Mortality (total number of deaths/total number of animals) (5 mg/kg, TID, q8h, 5 min of 3rd dosing): 0/4
Mortality (total number of deaths/total number of animals) (5 mg/kg, TID, q8h, 1 h of 1st dosing): 0/4
Mortality (total number of deaths/total number of animals) (5 mg/kg, TID, q8h, 1 h of 2nd dosing): 0/4
Mortality (total number of deaths/total number of animals) (5 mg/kg, TID, q8h, 1 h of 3rd dosing): 0/4
mortality after the 1st dosing (10 mg/kg): one of the four animals was found dead
Body Weight, individual animals No. 1-4 (10 mg/kg, 1st dosing (recorded before treatment)): 22 g (2×) and 23 g (2×)
Body Weight, individual animals No. 1-4 (10 mg/kg, 2nd dosing (2nd and 3rd doses not administered)): 21 g (2×) and dead and 23 g
Body Weight, individual animals No. 1-4 (10 mg/kg, 3rd dosing (2nd and 3rd doses not administered)): 21* g (2×) and 23* g
Mortality (total number of deaths/total number of animals) (10 mg/kg, 5 min of 1st dosing): 0/4
Mortality (total number of deaths/total number of animals) (10 mg/kg, 5 min of 2nd dosing (2nd and 3rd doses not administered)): 1/4
Mortality (total number of deaths/total number of animals) (10 mg/kg, 5 min of 3rd dosing (2nd and 3rd doses not administered)): 1/4
Mortality (total number of deaths/total number of animals) (10 mg/kg, 1 h of 1st dosing): 1/4
Mortality (total number of deaths/total number of animals) (10 mg/kg, 1 h of 2nd dosing (2nd and 3rd doses not administered)): 1/4
Mortality (total number of deaths/total number of animals) (10 mg/kg, 1 h of 3rd dosing (2nd and 3rd doses not administered)): 1/4
Body Weight, individual animals No. 1-4 [4]: 21* g (2×) and 24* g
Mortality (total number of deaths/total number of animals) [4]: 1/4
Body Weight, individual animals No. 1-4 [5]: 21* g (2×) and 24* g
Mortality (total number of deaths/total number of animals) [5]: 1/4
Body Weight, individual animals No. 1-4 [6]: 22* g (2×) and 23* g
Mortality (total number of deaths/total number of animals) [6]: 1/4
tolerability i.v. in ICR mice (15 mg/kg/24h i.v. (data not shown)): tolerated
Body Weight, individual animals No. 1-4 (30 mg/kg, 1st dosing (recorded before treatment)): 21 g and 22 g and 23 g and 24 g
Body Weight, individual animals No. 1-4 (30 mg/kg, 2nd dosing): dead
Mortality (total number of deaths/total number of animals) (30 mg/kg, 5 min of 1st dosing): All animals were found dead and 4/4
Mortality (total number of deaths/total number of animals) (30 mg/kg, 1 h of 1st dosing): All dead
Mortality (total number of deaths/total number of animals) (30 mg/kg, 1 h of 3rd dosing): All dead
tolerability (10 and 30 mg/kg dosages): not tolerated
Body Temperature (5 mg/kg IV): −
Death (5 mg/kg IV): −
Dec. Palpebral Size (5 mg/kg IV): −
Diarrhea (5 mg/kg IV): −
Inc. Palpebral Size (5 mg/kg IV): −
Lacrimation (5 mg/kg IV): −
Others (5 mg/kg IV): E
Piloerection (5 mg/kg IV): −
Respiration (5 mg/kg IV): D±
Salivation F.V. (5 mg/kg IV): −
Skin Color (5 mg/kg IV): C±
Body Temperature (10 mg/kg IV): −
Death (10 mg/kg IV): −
Dec. Palpebral Size (10 mg/kg IV): −
Diarrhea (10 mg/kg IV): −
Inc. Palpebral Size (10 mg/kg IV): −
Lacrimation (10 mg/kg IV): −
Others (10 mg/kg IV): E
Piloerection (10 mg/kg IV): −
Respiration (10 mg/kg IV): D±
Salivation F.V. (10 mg/kg IV): −
Skin Color (10 mg/kg IV): C±
Death (30 mg/kg IV): +
Dec. Exploration (5 mg/kg IV): −
Dec. Startle Response (5 mg/kg IV): −
Dec. Touch Response (5 mg/kg IV): −
Hyperactivity (5 mg/kg IV): −
Inc. Exploration (5 mg/kg IV): −
Inc. Startle (5 mg/kg IV): −
Inc. Touch (5 mg/kg IV): −
Irritability (5 mg/kg IV): −
Pinna (5 mg/kg IV): −
Placing (5 mg/kg IV): −
Hyperactivity (10 mg/kg IV): −
Inc. Exploration (10 mg/kg IV): −
Inc. Startle (10 mg/kg IV): −
Inc. Touch (10 mg/kg IV): −
Irritability (10 mg/kg IV): −
Dec. Exploration (10 mg/kg IV, 10 mg/kg): ± and +
Dec. Startle Response (10 mg/kg IV, 10 mg/kg): − and ±
Dec. Touch Response (10 mg/kg IV, 10 mg/kg): ± and +
Pinna (10 mg/kg IV, 10 mg/kg): ± and +
Placing (10 mg/kg IV, 10 mg/kg): ± and −
Ataxia (5 mg/kg IV): −
Convulsion C.T.C-T (5 mg/kg IV): −
Dec. Spont. Activity (5 mg/kg IV): −
Grip Strength (5 mg/kg IV): −
Limb Tone (5 mg/kg IV): −
Low Limb Post (5 mg/kg IV): −
Reactivity (5 mg/kg IV): −
Righting (5 mg/kg IV): −
Straub Tail (5 mg/kg IV): −
Tremor (5 mg/kg IV): −
Abdominal Tone (5 mg/kg IV, 5 mg/kg): − and ±
Ataxia (10 mg/kg IV): ±
Convulsion C.T.C-T (10 mg/kg IV): −
Dec. Spont. Activity (10 mg/kg IV): ±
Limb Tone (10 mg/kg IV): +
Reactivity (10 mg/kg IV): −
Righting (10 mg/kg IV): −
Straub Tail (10 mg/kg IV): −
Tremor (10 mg/kg IV): −
Abdominal Tone (10 mg/kg IV, 10 mg/kg): − and + and ±
Grip Strength (10 mg/kg IV, 10 mg/kg): ± and −
Low Limb Post (10 mg/kg IV, 10 mg/kg): ± and −
in vivo therapeutic index (before dose optimisation, tolerated dose vs effective dose): approximately 20 fold
